Entries after “also recorded” stand apart in the source; their conditions may differ.
System: sfEBMs in suspension
Assay: S18 treatment of essentially serum free embryoid bodies (sfEBMs) in suspension, histology and immunocytochemistry
Format: cell-based, human
Experimental: Essentially serum free embryoid bodies (sfEBMs) were generated as described in Example 6, and were exposed to S18 at different stages of their development in order to assess the timing of depletion of high Oct4 expressing cells, and in order to determine when neural rosettes could be selected. The sfEBMs in suspension were treated with 10 μM S18 in 50% DMEM/F12, 50% MEDII, supplemented with 1×N2, Glutamine (20 mM), penicillin (0.5 U/ml), and streptomycin (0.5 U/ml) for varying amounts of time, and the sfEBMs were then evaluated histologically and by immunocytochemistry.
Essentially serum free embryoid bodies were derived from protease passaged cells and grown in the presence of 50% MEDII conditioned medium. The embryoid bodies were exposed to 10 μM S18 in the same medium from day 6 to 9 after derivation. At day 9 the S18 treated sfEBMs and matched control sfEBMs not exposed to S18 were fixed, embedded in plastic, cut to 3 micron sections and stained with DAPI to enable the precise determination of the proportion of the total healthy nuclei of an sfEBM that were rosette cell nuclei.
This material was exposed to 10 μM S18 in 50% MEDII medium for 2 days, followed by manual passaging, and an additional 4 days in 10 μM S18 in the same medium. […] The non-rosette regions of the sfEBM fragmented when manipulated and released extensive stringy material that was indicative of genomic DNA from lysed cells. […] The rosette pieces were incubated in 10 μM S18 for a further 4 days, and the medium was then switched to 50% DMEM/F12, 50% MEDII, supplemented with 1×N2, and 4 ng/ml FGF-2 at day 20 after the initial derivation of the embryoid bodies.
At day 21 some ceramide selected sfEBMs were seeded onto polyornithine/laminin coated slides, cultured in the same medium for an additional 8 days, and fixed for immunostaining. These seeded pieces developed as rosette cultures and mats of neurons were observed differentiating from these precursors.
Essentially serum free embryoid bodies were derived from manually passaged cells, or protease passaged cells. EBs derived from protease passaged cells were formed in the presence of 50% MEDII conditioned medium. The embryoid bodies were exposed to 10 μM S18 in the same medium from day 6 to 9 after derivation. At day 9 the S18 treated sfEBMs matched control sfEBMs not exposed to S18, and matched control manually passaged sfEBs were sectioned to enable the precise determination of the proportion of the total healthy nuclei of an sfEBM that were rosette cell nuclei. The serum free embryoid bodies were embedded using the Immuno-Bed kit (Polysciences, Inc.). Serum free embryoid bodies were rinsed with 1×PBS and fixed in 4% paraformaldehyde, 4% sucrose in 1×PBS for 30 minutes at 4° C. The cells were then washed in 1×PBS and stored at 4° C. PBS was removed and the embryoid bodies were dehydrated by incubation in a series of 25%, 50%, 75% Ethanol/PBS for 5 minutes at room temperature, followed by 100% Ethanol. Infiltration solution was made by adding 0.25 g Benzoyl Peroxide to 20 ml Immuno-Bed Solution A. The ethanol was removed from the serum free embryoid bodies and 1 ml infiltration solution was added. After one hour, the infiltration solution was changed for three 20 min incubations. For embedding, 1 ml solution B (accelerator) was added to 25 ml fresh infiltration solution. The infiltration solution was removed from the serum free embryoid bodies and 0.5 ml embedding solution was added. The samples were transferred to a mold, a block holder was added and the mold was placed at 4° C. to set. 3 micron sections were cut using a Leica microtome, and were stained with DAPI.

[1] = sfEBMs at day 14, 48 hours exposure to 10 μM S18

With `CCCCCCCC/C=C\CCCCCCCC(=O)NC(CO)CO` [S18, N-(2-hydroxy-1-(hydroxymethyl)ethyl)-oleoylamide] the “derivation of sfEBMs from monolayer crater cells” value (10 μM S18, four days of treatment) was “No viable embryoid bodies were observed”, the “regions or cells of high Oct4 expression (residual pluripotent cells)” value (10 μM S18 in suspension, then seeded, anti-Oct4 immunostaining) was “no regions of high Oct4 expression could be detected; also recorded: do not exhibit any cells expressing high levels of Oct4” and the “mitotic activity of neural rosette precursor cells (PhosphoHistone H3)” value (day 28 after derivation, 8 days after withdrawal of S18) was “still mitotically active”. The “apoptosis in the embryoid bodies” value [1] was “extensive apoptosis in the bodies”, the “morphology of rosette regions” value [1] was “morphologically normal” and the “surviving cells in DAPI stained sections of sfEBMs” value (sfEBMs from SSEA4 selected protease passaged HESCs, 10 μM S18 from day 6 to 9) was “highly enriched population of neural rosette cells; also recorded: nearly all nuclei in the treated sfEBM were elongated in appearance; also recorded: Nearly all cells exhibited a radial nuclear staining”.
